Assay [1] has as its system HeLa cells. Briefly: AlamarBlue cytotoxic assay, HeLa. The assay is classed as cell-based. As to conditions: human cervical HeLa cells, 48 h, read-out: Cytotoxicity IC50 HeLa. As to the method:
(§1) The cells were seeded in 96-well microplates (1 × 10^4 cells/100 µL in each well) and cultivated for 24 h before the addition of test compounds. Three wells for each concentration were seeded and triplicate plates were used. […] Then, the cells were incubated with the different concentrations of the test compounds, positive control and cell culture medium alone as a negative control for 48 h. After that, 10 μL of alamarBlue® reagent was added to the attached cells and incubated for another four hour. The absorbance was measured at 600 nm using an ELISA microplate reader (Epoch; Bio Tek, Winooski, VT, USA), and the percent viability of the cells was investigated relative to the negative control that was exposed to the culture medium without compounds of the plant. Then, IC50 values were calculated by nonlinear regression analysis using GraphPad Prism (Version 6.0) software.

The subject of assay [2] is HCT116 cells. Briefly: AlamarBlue cytotoxic assay, HCT116. The conditions noted are these: HCT-116, human colon cancer HCT116 cells, 48 h, read-out: Cytotoxicity IC50 HCT116. It is filed as cell-based. Here is the method: as §1
For orientation: Alamar Blue is a resazurin reagent that responds to reducing activity.

Assay [3] has as its system A2780 cells. Briefly: AlamarBlue cytotoxic assay, A2780. The assay is classed as cell-based. The conditions noted are these: Homo sapiens, ovarian cancer A2780 cells, 48 h, read-out: Cytotoxicity IC50 A2780. As to the method: as §1
Assay [4] has as its system A549 cells. Briefly: AlamarBlue cytotoxic assay, A549. The assay is classed as cell-based. As to conditions: Homo sapiens, lung A549 cells, 48 h, read-out: Cytotoxicity IC50 A549. As to the method: as §1
Assay [5] concerns HDAC. Briefly: Whole-cell HDAC inhibition assay in HeLa cells. As to conditions: 18 h, Boc-Lys(ε-Ac)-AMC substrate. It is filed as cell-based, human. As to the method:
(§2) The cellular HDAC assay was based on an assay published by Marek et al. ([16]). HCT116 and HeLa human cancer cell lines were seeded in 96-well tissue culture microplates (1.5 × 10^4 cells/90 µL culture medium in each well). […] The test compounds were dissolved in dimethyl sulfoxide (the final amount of DMSO/well was maintained at 0.1% V/V) and their concentrations adjusted to 70, 40, 20, 5, 1 μM through dilution with the growth medium. The reaction was started by adding 10 µL of 3 mM Boc-Lys (ε-Ac)-AMC (Bachem, Switzerland) to each well at a final concentration of 0.3 mM. The cells were incubated with the Boc-Lys (ε-Ac)-AMC for 3 h under cell culture conditions. […] The final volume of the assay is 210 µL in all the wells. After that, the solution was transferred into a black 96-well microplate with flat clear bottom and fluorescence intensity was detected at an excitation of 360 nm and emission of 470 nm in a NOVO star microplate reader (BMGLabTech, Offenburg, Germany).

For assay [6], the system named is HDAC. Briefly: Whole-cell HDAC inhibition assay in HCT116 cells. The conditions noted are these: HCT116, 18 h, Boc-Lys(ε-Ac)-AMC substrate. It is filed as cell-based, human. Here is the method:
as §2

Assay [7] concerns A2780, A549, HeLa, and HCT116 human cancer cell lines. Briefly: AlamarBlue cytotoxic assay, range over four cancer cell lines. It is filed as cell-based. The conditions noted are these: read-out: Cytotoxicity IC50 range against four cancer cell lines. As to the method: Compounds 1-5 were tested against HeLa, HCT116, A2780and A549 human cancer cell lines using a nonfluorescent substrate, AlamarBlue® (BioSource Invitrogen, Paisely, UK) and subjected to cell viability assay as described with some modification ([15]). The cell lines were cultured in RPMI-1640 medium (Cambrex Bioscience) supplemented with 10% fetal bovine serum (FBS), and 1% penicillin/streptomycin at 37 °C in an atmosphere of 95% […] and 5% CO2. The cells were seeded in 96-well microplates (1 × 10^4 cells/100 µL in each well) and cultivated for 24 h before the addition of test compounds. Three wells for each concentration were seeded and triplicate plates were used. The test compounds were dissolved in dimethyl sulfoxide (the final amount of DMSO per well was maintained at 0.1%V/V) and their concentrations adjusted to 100, 50, 25, 12.5, 6.25 μM through dilution with the growth medium. […] The absorbance was measured at 600 nm using an ELISA microplate reader (Epoch; Bio Tek, Winooski, VT, USA), and the percent viability of the cells was investigated relative to the negative control that was exposed to the culture medium without compounds of the plant. Then, IC50 values were calculated by nonlinear regression analysis using GraphPad Prism (Version 6.0) software.

In assay [8] the test system is pan-HDAC. Briefly: Whole-cell pan-HDAC inhibition, range over HCT116 and HeLa cells. As to conditions: read-out: pan-HDAC inhibitory activity IC50 range. It is filed as cell-based, human. Here is the method:
as §2

What is called IC50 is the concentration needed to halve the response being measured.

With `COc1c(C2COc3cc(O)c(CC=C(C)C)c(O)c3C2=O)ccc(O)c1CC=C(C)C` (centres unmarked) [Compound 1, isosophoranone], the concentration for half-maximal inhibition (IC50) came to 43.2 µM in assay [1]; 39.3 µM in assay [2]; 49.3 µM in assay [3]; 53.5 µM in assay [4]; 34.7 µM in assay [5]; 26.5 µM in assay [6].
With `C=C(C)[C@H](CC=C(C)C)Cc1c(O)cc(O)c2c1O[C@H](c1ccc(O)cc1O)CC2=O` [Compound 2, sophoraflavanone G], the IC50 in assay [1] is 44.2 µM; in assay [2], 54.4 µM; in assay [3], 65.5 µM; in assay [4], 72.5 µM; in assay [5], greater than 70 µM; in assay [6], greater than 70 µM.
As for `Oc1ccc(C2Oc3cc(O)cc(O)c3C2O)cc1` (centres unmarked) [Compound 3, 2-(4-hydroxyphenyl)-2,3-dihydrobenzo[b]furan-3,4,6-triol], the IC50 in assay [1] is 69.4 µM; in assay [2], 54 µM; in assay [3], greater than 100 µM; in assay [4], 76.5 µM; in assay [5], greater than 70 µM; in assay [6], greater than 70 µM.
Turning to `C=C(C)C(CC=C(C)C)Cc1c2c(c(O)c3c1OC(c1ccc(O)cc1)C3c1cc(O)cc(O)c1)C(=O)CC(c1ccc(O)cc1O)O2` (centres unmarked) [Compound 4, alopecurone J], the IC50 came to 9.97 µM in assay [1]; 18 µM in assay [2]; 21.9 µM in assay [3]; 30.9 µM in assay [4]; 3.85 µM in assay [5]; 0.08 µM in assay [6]. Further, the half-maximal inhibitory concentration (IC50) in assay [7] fell in the range of 9.97 to 30.9 µM; in assay [8], 0.08 to 3.85 µM.
On to `CC(C)=CCc1c2c(c(O)c3c1O[C@@H](c1ccc(O)cc1)[C@@H]3c1cc(O)cc(O)c1)C(=O)C[C@@H](c1ccc(O)cc1O)O2` [Compound 5, alopecurone P], for which the IC50 in assay [1] came out at 52.6 µM; in assay [2], 48.4 µM; in assay [3], 69 µM; in assay [4], 54.9 µM; in assay [5], 24.9 µM; in assay [6], 22.2 µM.

For the origin of these results see article PMC8019873, “Histone Deacetylase Inhibitory and Cytotoxic Activities of the Constituents from the Roots of Sophora Pachycarpa” (Iranian Journal of Pharmaceutical Research : IJPR, 2020).
